≈ marks a conversion by molar mass, not a printed value.
Key:
KB = experiment: Cytotoxicity against human KB cells; format: functional, cell-based
L1210 = experiment: Cytotoxicity against mouse L1210 cells; format: functional, cell-based

## CCC(C)CC(C)CC(C)C(O[C@@H]1O[C@H](C(=O)OC)[C@@H](O)[C@H](O)[C@@H]1O)C(C)/C=C(\C)C(O)C(C)/C=C(\C)C(O)C(C)/C=C(\C)[C@H](O)[C@@H](C)C(=O)OC[C@H](O)[C@@H](O)[C@@H](O)CO (some centres not stated) [CLADIONOL A]
KB
  IC50: 7 µg/mL (≈ 8.11 µM)
L1210
  IC50: 5 µg/mL (≈ 5.79 µM)

— ChEMBL document CHEMBL1158770, “Cladionol A, a polyketide glycoside from marine-derived fungus Gliocladium species” (J Nat Prod, 2005)
